Starred links: 1 amine or outer side, 2 acyl side, 3 side chain; linkers in the order of their positions; H or OH if unused. Positions of bridges follow the written chain, without caps; N, C: chain ends. Residues, ends and D or L forms follow the SMILES beside them. *: point of attachment. C18 diacid = O=C(O)CCCCCCCCCCCCCCCCC(=O)*; γGlu = O=C(O)[C@H](CCC(=O)[*:2])N[*:1]; AEEA = NCCOCCOCC(=O)O
biological target: T1, human natriuretic peptide receptor 2 (hNPR2) (Homo sapiens, UniProt P20594); experiment: In vitro hNPR2 activity assay (cGMP GloSensor reporter, HEK293); assay type: cell-based; settings: 0% HSA; HEK293-hNPR2/GloSensor cells
T1 construct: expressed in transfected cells; host or cells: HEK293 (ATCC CRL-1573), clone 35, co-transfected with pGloSensor-42F
T1 sequence (P20594 23-1047): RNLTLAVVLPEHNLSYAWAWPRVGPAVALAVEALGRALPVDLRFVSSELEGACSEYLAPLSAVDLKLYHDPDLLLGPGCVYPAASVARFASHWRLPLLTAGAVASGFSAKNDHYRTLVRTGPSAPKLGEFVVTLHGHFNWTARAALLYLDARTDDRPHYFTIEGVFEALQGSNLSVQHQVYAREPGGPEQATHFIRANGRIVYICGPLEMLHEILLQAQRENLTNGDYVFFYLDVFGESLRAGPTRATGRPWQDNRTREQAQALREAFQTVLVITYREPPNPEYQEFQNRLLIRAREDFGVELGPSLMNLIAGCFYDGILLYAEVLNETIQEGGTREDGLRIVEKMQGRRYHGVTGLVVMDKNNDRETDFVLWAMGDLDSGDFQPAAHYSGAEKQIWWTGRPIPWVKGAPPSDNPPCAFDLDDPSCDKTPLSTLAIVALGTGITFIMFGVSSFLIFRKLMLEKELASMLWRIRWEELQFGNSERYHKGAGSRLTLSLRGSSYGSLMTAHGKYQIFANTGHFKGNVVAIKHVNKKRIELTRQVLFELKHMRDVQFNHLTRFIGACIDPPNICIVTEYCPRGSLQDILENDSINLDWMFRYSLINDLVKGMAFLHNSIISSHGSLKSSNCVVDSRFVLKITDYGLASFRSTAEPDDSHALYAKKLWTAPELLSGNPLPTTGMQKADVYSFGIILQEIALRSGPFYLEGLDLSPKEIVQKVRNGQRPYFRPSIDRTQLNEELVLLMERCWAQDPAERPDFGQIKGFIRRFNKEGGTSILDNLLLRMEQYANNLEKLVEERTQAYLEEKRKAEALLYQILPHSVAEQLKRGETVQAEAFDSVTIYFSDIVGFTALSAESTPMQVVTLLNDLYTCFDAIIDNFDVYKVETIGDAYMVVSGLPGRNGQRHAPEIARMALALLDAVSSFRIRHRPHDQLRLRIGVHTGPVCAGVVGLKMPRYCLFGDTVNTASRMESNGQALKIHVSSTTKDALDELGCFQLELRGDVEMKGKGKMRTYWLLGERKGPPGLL
How it was run: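 Potency is the EC50 from a four-parameter logistic fit, also expressed relative to the in-plate CNP22 control (×100), with at least two replicates. Compounds (ten concentrations, […], HSA-free diluent with 1% OVA, 0.01% Tween20) were incubated 30 min at 37 °C on HEK293 cells co-expressing hNPR2 and a GloSensor cGMP luciferase. Luminescence detected with Bright-Glo.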

EC50 [nM] | SMILES
0.56 | CC[C@H](C)[C@@H]1NC(=O)[C@H](CCCNC(=N)N)NC(=O)[C@H](CC(=O)O)NC(=O)[C@H](CC(C)C)NC(=O)[C@H](CCCCN)NC(=O)[C@H](CC(C)C)NC(=O)CNC(=O)[C@H](Cc2ccccc2)NC(=O)[C@@H](NC(=O)CNC(=O)[C@H](CCCCN)NC(=O)[C@H](CO)NC(=O)[C@H](CC(C)C)NC(=O)CNC(=O)[C@H](CCCCN)NC(=O)[C@H](CCCCN)NC(=O)[C@H](CCC(N)=O)NC(=O)[C@H](C)NC(=O)CNC(=O)[C@H](CCCCN)NC(=O)[C@H](Cc2ccc(O)cc2)NC(=O)[C@H](CCCCN)NC(=O)[C@H](CCCNC(=N)N)NC(=O)[C@H](C)NC(=O)[C@H](CCC(N)=O)NC(=O)[C@@H]2CCCN2C(=O)[C@H](Cc2c[nH]cn2)NC(=O)[C@H](CCC(=O)O)NC(=O)[C@H](CCC(N)=O)NC(=O)COCCOCCNC(=O)COCCOCCNC(=O)CC[C@H](NC(=O)CC[C@H](NC(=O)CC[C@H](NC(=O)CC[C@H](NC(=O)CC[C@H](NC(=O)CC[C@H](NC(=O)CC[C@H](NC(=O)CC[C@H](NC(=O)CCCCCCCCCCCCCCCCC(=O)O)C(=O)O)C(=O)O)C(=O)O)C(=O)O)C(=O)O)C(=O)O)C(=O)O)C(=O)O)CSSC[C@@H](C(=O)O)NC(=O)CNC(=O)[C@H](CC(C)C)NC(=O)CNC(=O)[C@H](CO)NC(=O)[C@H](CC(C)C)NC(=O)[C@H](CO)NC(=O)CNC1=O [compound 1401]

same assay, conditions: potency relative to CNP22 (0065)

SMILES | hNPR2 0% HSA. [EC50% rel CNP] [%]
CC[C@H](C)[C@@H]1NC(=O)[C@H](CCCNC(=N)N)NC(=O)[C@H](CC(=O)O)NC(=O)[C@H](CC(C)C)NC(=O)[C@@H]2CCCN2C(=O)[C@H](CC(C)C)NC(=O)CNC(=O)[C@H](Cc2ccccc2)NC(=O)[C@@H](NC(=O)CNC(=O)[C@H](CCC(N)=O)NC(=O)[C@H](CO)NC(=O)CNC(=O)CNC(=O)[C@H](CCCCN)NC(=O)[C@H](CCCCN)NC(=O)[C@H](CCC(N)=O)NC(=O)[C@H](C)NC(=O)CNC(=O)[C@H](CCCCN)NC(=O)[C@H](Cc2ccc(O)cc2)NC(=O)[C@H](CCCCN)NC(=O)[C@H](Cc2c[nH]cn2)NC(=O)[C@H](C)NC(=O)[C@H](CCC(N)=O)NC(=O)[C@@H]2CCCN2C(=O)[C@H](Cc2c[nH]cn2)NC(=O)[C@H](CCC(=O)O)NC(=O)[C@H](CCC(N)=O)NC(=O)COCCOCCNC(=O)COCCOCCNC(=O)CC[C@H](NC(=O)CC[C@H](NC(=O)CC[C@H](NC(=O)CC[C@H](NC(=O)CCCCCCCCCCCCCCCCC(=O)O)C(=O)O)C(=O)O)C(=O)O)C(=O)O)CSSC[C@@H](C(=O)O)NC(=O)CNC(=O)[C@H](CC(C)C)NC(=O)CNC(=O)[C@H](CO)NC(=O)[C@H](CC(C)C)NC(=O)[C@H](CO)NC(=O)CNC1=O [compound 1400] ({C18 diacid-γGlu-γGlu-γGlu-γGlu-AEEA-AEEA}-QEHPQAHKYKGAQKKGGSQGCFGLPLDRIGSLSGLGC-OH; disulfide 21-37) | 85.3
CC[C@H](C)[C@@H]1NC(=O)[C@H](CCCNC(=N)N)NC(=O)[C@H](CC(=O)O)NC(=O)[C@H](CC(C)C)NC(=O)[C@H](CCCCN)NC(=O)[C@H](CC(C)C)NC(=O)CNC(=O)[C@H](Cc2ccccc2)NC(=O)[C@@H](NC(=O)CNC(=O)[C@H](CCCCN)NC(=O)[C@H](CO)NC(=O)[C@H](CC(C)C)NC(=O)CNC(=O)[C@H](CCCCN)NC(=O)[C@H](CCCCN)NC(=O)[C@H](CCC(N)=O)NC(=O)[C@H](C)NC(=O)CNC(=O)[C@H](CCCCN)NC(=O)[C@H](Cc2ccc(O)cc2)NC(=O)[C@H](CCCCN)NC(=O)[C@H](CCCNC(=N)N)NC(=O)[C@H](C)NC(=O)[C@H](CCC(N)=O)NC(=O)[C@@H]2CCCN2C(=O)[C@H](Cc2c[nH]cn2)NC(=O)[C@H](CCC(=O)O)NC(=O)[C@H](CCC(N)=O)NC(=O)COCCOCCNC(=O)COCCOCCNC(=O)CC[C@H](NC(=O)CC[C@H](NC(=O)CC[C@H](NC(=O)CC[C@H](NC(=O)CC[C@H](NC(=O)CC[C@H](NC(=O)CC[C@H](NC(=O)CC[C@H](NC(=O)CCCCCCCCCCCCCCCCC(=O)O)C(=O)O)C(=O)O)C(=O)O)C(=O)O)C(=O)O)C(=O)O)C(=O)O)C(=O)O)CSSC[C@@H](C(=O)O)NC(=O)CNC(=O)[C@H](CC(C)C)NC(=O)CNC(=O)[C@H](CO)NC(=O)[C@H](CC(C)C)NC(=O)[C@H](CO)NC(=O)CNC1=O [compound 1401] | 19.7
CC[C@H](C)[C@@H]1NC(=O)[C@H](CCCNC(=N)N)NC(=O)[C@H](CC(=O)O)NC(=O)[C@H](CC(C)C)NC(=O)[C@@H]2CCCN2C(=O)[C@H](CC(C)C)NC(=O)CNC(=O)[C@H](Cc2ccccc2)NC(=O)[C@@H](NC(=O)CNC(=O)[C@H](CCC(N)=O)NC(=O)[C@H](CO)NC(=O)CNC(=O)CNC(=O)[C@H](CCCCN)NC(=O)[C@H](CCCCN)NC(=O)[C@H](CCC(N)=O)NC(=O)[C@H](C)NC(=O)CNC(=O)[C@H](CCCCN)NC(=O)[C@H](Cc2ccc(O)cc2)NC(=O)[C@H](CCCCN)NC(=O)[C@H](CCCNC(=N)N)NC(=O)[C@H](C)NC(=O)[C@H](CCC(N)=O)NC(=O)[C@@H]2CCCN2C(=O)[C@H](Cc2c[nH]cn2)NC(=O)[C@H](CCC(=O)O)NC(=O)[C@H](CCC(N)=O)NC(=O)COCCOCCNC(=O)COCCOCCNC(=O)CC[C@H](NC(=O)CC[C@H](NC(=O)CC[C@H](NC(=O)CC[C@H](NC(=O)CC[C@H](NC(=O)CC[C@H](NC(=O)CCCCCCCCCCCCCCCCC(=O)O)C(=O)O)C(=O)O)C(=O)O)C(=O)O)C(=O)O)C(=O)O)CSSC[C@@H](C(=O)O)NC(=O)CNC(=O)[C@H](CC(C)C)NC(=O)CNC(=O)[C@H](CO)NC(=O)[C@H](CC(C)C)NC(=O)[C@H](CO)NC(=O)CNC1=O [compound 1403] ({C18 diacid-γGlu-γGlu-γGlu-γGlu-γGlu-γGlu-AEEA-AEEA}-QEHPQARKYKGAQKKGGSQGCFGLPLDRIGSLSGLGC-OH; disulfide 21-37) | 87.1
CC[C@H](C)[C@@H]1NC(=O)[C@H](CCCNC(=N)N)NC(=O)[C@H](CC(=O)O)NC(=O)[C@H](CC(C)C)NC(=O)[C@@H]2CCCN2C(=O)[C@H](CC(C)C)NC(=O)CNC(=O)[C@H](Cc2ccccc2)NC(=O)[C@@H](NC(=O)CNC(=O)[C@H](CCCCN)NC(=O)[C@H](CO)NC(=O)[C@@H](NC(=O)CNC(=O)[C@@H](NC(=O)[C@H](CCCCN)NC(=O)[C@H](CCC(N)=O)NC(=O)[C@H](C)NC(=O)CNC(=O)[C@H](Cc2c[nH]cn2)NC(=O)[C@H](Cc2ccc(O)cc2)NC(=O)[C@H](CCCCN)NC(=O)[C@H](CCCNC(=N)N)NC(=O)[C@H](C)NC(=O)COCCOCCNC(=O)COCCOCCNC(=O)CC[C@H](NC(=O)CC[C@H](NC(=O)CC[C@H](NC(=O)CCCCCCCCCCCCCCCCC(=O)O)C(=O)O)C(=O)O)C(=O)O)[C@@H](C)O)C(C)C)CSSC[C@@H](C(=O)O)NC(=O)CNC(=O)[C@H](CC(C)C)NC(=O)CNC(=O)[C@H](CO)NC(=O)[C@H](CC(C)C)NC(=O)[C@H](CO)NC(=O)CNC1=O [compound 1423] ({C18 diacid-γGlu-γGlu-γGlu-AEEA-AEEA}-ARKYHGAQKTGVSKGCFGLPLDRIGSLSGLGC-OH; disulfide 16-32) | 37.7
CC[C@H](C)[C@@H]1NC(=O)[C@H](CCCNC(=N)N)NC(=O)[C@H](CC(=O)O)NC(=O)[C@H](CC(C)C)NC(=O)[C@@H]2CCCN2C(=O)[C@H](CC(C)C)NC(=O)CNC(=O)[C@H](Cc2ccccc2)NC(=O)[C@@H](NC(=O)CNC(=O)[C@H](CCCCN)NC(=O)[C@H](CO)NC(=O)[C@@H](NC(=O)CNC(=O)[C@@H](NC(=O)[C@H](CCCCN)NC(=O)[C@H](CCC(N)=O)NC(=O)[C@H](C)NC(=O)CNC(=O)[C@H](CCCCN)NC(=O)[C@H](Cc2ccc(O)cc2)NC(=O)[C@H](CCCCN)NC(=O)[C@H](CCCNC(=N)N)NC(=O)[C@H](C)NC(=O)COCCOCCNC(=O)COCCOCCNC(=O)CC[C@H](NC(=O)CC[C@H](NC(=O)CC[C@H](NC(=O)CC[C@H](NC(=O)CCCCCCCCCCCCCCCCC(=O)O)C(=O)O)C(=O)O)C(=O)O)C(=O)O)[C@@H](C)O)C(C)C)CSSC[C@@H](C(=O)O)NC(=O)CNC(=O)[C@H](CC(C)C)NC(=O)CNC(=O)[C@H](CO)NC(=O)[C@H](CC(C)C)NC(=O)[C@H](CO)NC(=O)CNC1=O [compound 1424] ({C18 diacid-γGlu-γGlu-γGlu-γGlu-AEEA-AEEA}-ARKYKGAQKTGVSKGCFGLPLDRIGSLSGLGC-OH; disulfide 16-32) | 36.2
CC[C@H](C)[C@@H]1NC(=O)[C@H](CCCNC(=N)N)NC(=O)[C@H](CC(=O)O)NC(=O)[C@H](CC(C)C)NC(=O)[C@@H]2CCCN2C(=O)[C@H](CC(C)C)NC(=O)CNC(=O)[C@H](Cc2ccccc2)NC(=O)[C@@H](NC(=O)CNC(=O)[C@H](CCCCN)NC(=O)[C@H](CO)NC(=O)[C@@H](NC(=O)CNC(=O)[C@@H](NC(=O)[C@H](CCCCN)NC(=O)[C@H](CCC(N)=O)NC(=O)[C@H](C)NC(=O)CNC(=O)[C@H](Cc2c[nH]cn2)NC(=O)[C@H](Cc2ccc(O)cc2)NC(=O)COCCOCCNC(=O)COCCOCCNC(=O)COCCOCCNC(=O)COCCOCCNC(=O)CC[C@H](NC(=O)CC[C@H](NC(=O)CCCCCCCCCCCCCCCCC(=O)O)C(=O)O)C(=O)O)[C@@H](C)O)C(C)C)CSSC[C@@H](C(=O)O)NC(=O)CNC(=O)[C@H](CC(C)C)NC(=O)CNC(=O)[C@H](CO)NC(=O)[C@H](CC(C)C)NC(=O)[C@H](CO)NC(=O)CNC1=O [compound 1425] ({C18 diacid-γGlu-γGlu-AEEA-AEEA-AEEA-AEEA}-YHGAQKTGVSKGCFGLPLDRIGSLSGLGC-OH; disulfide 13-29) | 26.4

From patent publication US20240209028A1, “CNP COMPOUNDS” (priority 2022, published 2024)
